The text below walks through data of US7442783B2, “Natural IgM antibodies and inhibitors thereof” (The CBR Institute for Biomedical Research, Inc., priority 2004, dated 2008).

One assay deals with WT mice. As to the kind of experiment: Intestinal RI model in wild type mice (histopathology, immunohistochemistry). The conditions noted are these: peptide i.v. five minutes prior to reperfusion. The class given is in vivo, mouse. As to the method: (§1) Surgical protocol for RI was performed as previously described (Zhang et al. (2004) PNAS USA 101:3886-91). […] After 40 minutes of ischemia, the microclip was removed, and reperfusion of the mesenteric vasculature was confirmed by the return of pulsation to the vascular arcade and a change to pink color. The incision was closed, and all animals kept warm for 3 hours. Reconstituted RAG-1^−/− animals received either IgM mixed with peptide or saline in 0.2 ml volume intravenously 30 min before the initial laparotomy. WT animals were treated with saline or peptide i.v. 5 minutes prior to reperfusion. At the end of reperfusion, the ischemic segment of the jejunum was harvested and the central 4 cm was cut for pathological analysis.
(§2) Cryostat sections of intestinal tissues were stained by hematoxylin and eosin (H&E) and examined by light microscopy for mucosal damage. Pathology score was assessed based on procedure by Chiu (Chiu et al, Arch Surg 101: 484-488, 1970; Chiu, et al, Arch Surg 101: 478-483, 1970) that included direct inspection of all microvilli over a 4 cm stretch of jejuneum as described. Zhang et al. (2004) PNAS USA 101:3886-91. For immuno-fluorescence, cryosections fixed with 4% (w/v) paraformaldehyde were incubated for varying periods with either biotin-labeled anti-mouse IgM (Becton Dickinson, Calif.) followed by 1 hour with streptavidin-Alexa-568 (1:500 dilution, Molecular Probes, Oreg.). C4 deposition was detected by staining with FITC-labeled rabbit anti-huC4c (DAKO, Colo.), followed by anti-rabbit-Alexa 488 (Molecular Probes, Oreg.). The specificity of anti-C4c staining was confirmed by staining serial sections with biotin-labeled anti-mouse C4 for 1 hour followed by streptavidin-FITC (Becton Dickinson, Calif.). C3 deposition was detected by treating with FITC-labeled anti-C3 (DAKO, Colo.). Sections were mounted in Anti-fade Mounting Medium with DAPI (Molecular Probes, Oreg.).

The test system of a further assay is IgM^CM-31. Put plainly: SPR analysis of peptide binding to control IgM^CM-31-coupled surface. Also on record: species or system mouse. The settings on record: peptide injected at 120 μM. As to the method: FIG. 9D is a graph showing the binding isotherm for the injection of the self-peptide N2 at 120 μM over a surface coupled with the control IgM^CM-31.
(§3) An IgM (IgM^CM-22 or IgM^CM-31) antibody was immobilized by amine coupling in a BiaCore SPR CM5™ chip flowcell at a density of 33,400 response units (RU) ˜33 ng/mm^2 as described. Vorup-Jensen et al, PNAS USA 100: 1873-1878, 2003. Briefly, a reference flow cell was prepared by coupling of ethanolamine-HCl. Peptides, diluted in PBS running buffer, were flowed separately over the IgM-coupled surface and the reference at a rate of 10 μl/min at 25° C. and with the data collection rate at 10 Hz. […] Binding isotherms were derived by subtracting the response in the reference cell from the response of the IgM-coupled surface. Following each run, the surface was regenerated by injecting 40 μl 0.05% (v/v) polyoxyethylenesorbitan monolaureate/PBS.
(SPR reads the build-up and loss of mass on a sensor chip optically.)

For assay [1], the target named is IgM^CM-22. Put plainly: SPR analysis of peptide binding to IgM^CM-22-coupled surface. Further details: species or system mouse. The settings on record: calculated from steady-state response levels, 1:1 Langmuir fit; mean±SD, n=2; 25° C. How it is done:
FIG. 9A is a graph showing the surface plasmon resonance for the self-peptide N2. Binding isotherms for samples of the self-peptide N2 with concentration from 10.5 μM to 120 μM injected over the IgM^CM-22-coupled surface.
FIG. 9B is a graph showing the surface plasmon resonance for a control peptide. Binding isotherm for a same-length, random-sequence control peptide (AGCMPYVRIPTA; SEQ ID NO: 62), injected at a concentration of 117 μM over the IgM^CM-22-coupled surface.
as §3

The test system of assay [2] is RAG-1^−/− mice. Put plainly: Intestinal RI model in reconstituted RAG-1^−/− mice (histopathology, immunohistochemistry). It is filed as in vivo, mouse. The settings on record: for mean pathology score: 40 min ischemia, 3 h reperfusion. How it is done:
as §1, §2

Assay [3] concerns IgM^CM-22. Put plainly: Titration of peptide with IgM^CM-22. Further details: species or system mouse. The settings on record: previous titration of peptide with IgM^CM-22.
Assay [4] concerns the target IgM^CM-22. As to the kind of experiment: ELISA: synthetic peptide P8 inhibits IgM^CM-22 binding of phage clone P8. Further details: species or system mouse. The settings on record: peptide added to IgM^CM-22-coated plate prior to 5×10^11 PFU phage; estimated; read-out: concentration of P8 peptide yielding 50% inhibition of phage P8 binding to IgM^CM-22. As to the method:
FIG. 6B is a bar graph showing that the synthetic peptide P8 inhibits IgM^CM-22 binding of phage clone P8. ELISA was performed with varying concentrations of the synthetic peptide P8 added to the IgM^CM-22-coated plate prior to the addition of 5×10^11 PFU phage. The results are representative of at least three independent experiments.
(§4) ELISA was performed as described earlier (Zhang et al. (2004) PNAS USA 101:3886-91). Briefly, IgM binding to phage or phage-specific peptides was determined by coating a 96-well plate with saturating amounts of antigen. Subsequent to blocking, IgM was added (1 or 10 μg/ml) for 2 hr at 37° C. Plates were washed and then developed with alkaline phosphatase-labeled goat anti-mouse IgM (Sigma, MO). Binding of IgM to NMHC-II was determined by culturing 96-well plates previously coated with specific rabbit antibody (NMHC-II A & B; Covance Research Products; NMHC-II C a gift from Dr. Adelstein, NHLBI, NIH, Bethesda, Md.) or pan-myosin Hc (Sigma, Mo.) with intestinal lysates prepared from IgM^CM-22 reconstituted RAG-1^−/− mice either sham treated or treated for ischemia as described (Zhang et al. (2004) PNAS USA 101:3886-91). Lysates were prepared as described for immune precipitation (see below). Alkaline-phosphatase labeled goat anti-mouse IgM (Sigma, Mo.) was then used to detect bound IgM. […]

Assay [5] deals with IgM^CM-22. As to the kind of experiment: ELISA screening of M-13 phage clones on IgM^CM-22-coated plate. The class given is binding, mouse. The settings on record: five phage clones compared, ELISA (FIG. 6A). An excerpt: FIG. 6A is a graph showing the ELISA screening of M-13 phage-display library for IgM^CM-22-specific peptides. Symbols: […]-P1 clone; X-P2 clone, ∘-P7 clone; ⋄-P8 clone. The plate was coated with a solution of IgM^CM-22 before addition of varying concentrations of phage-clones. The results are representative of at least three independent experiments.
A 12-mer M-13 phage display library (New England Biolab, Mass.) was screened by 4 rounds with MBL-beads coated with IgM^CM-22 and 2 rounds with IgM^CM-75 according to the manufacturer's recommendation. Phage clones were selected from the enriched pool and the nucleotide sequence of the relevant phage gene determined for at least ten clones. […]
ELISA was performed as described earlier (Zhang et al. (2004) PNAS USA 101:3886-91). Briefly, IgM binding to phage or phage-specific peptides was determined by coating a 96-well plate with saturating amounts of antigen. […] Binding of IgM to NMHC-II was determined by culturing 96-well plates previously coated with specific rabbit antibody (NMHC-II A & B; Covance Research Products; NMHC-II C a gift from Dr. Adelstein, NHLBI, NIH, Bethesda, Md.) or pan-myosin Hc (Sigma, Mo.) with intestinal lysates prepared from IgM^CM-22 reconstituted RAG-1^−/− mice either sham treated or treated for ischemia as described (Zhang et al. (2004) PNAS USA 101:3886-91). […]
In general terms: In an ELISA, binding on a coated surface is turned into a signal by an enzyme label.

Assay [6] concerns antibody deficient mice (RAG-1). Put plainly: Intestinal I/R injury in antibody-deficient (RAG-1) mice reconstituted with hybridoma IgM. It is filed as in vivo, mouse. The settings on record: IgM injected intravenously 30 minutes before initial laparotomy, permeability index (FIG. 4). How it is done: IgM or saline was injected intravenously 30 minutes before initial laparotomy. At the end of reperfusion, blood is obtained and permeability index is calculated as the ratio of ^125I counts of dried intestine versus that of blood. Values represent means±standard error; n equals the numbers of mice used in experimental groups. 1=WT plus normal saline; 2=RAG plus normal saline; 3=RAG plus IgM hybridoma CM-22; 4=WT sham control.
This finding was unexpected because they have a normal level of IgM in their blood. These findings led to the hypothesis that a special population of B cells termed B-1 cells are responsible for secreting the pathogenic IgM. […] To identify the specific antibody or antibodies responsible for injury, a panel of hybridoma clones were constructed from an enriched pool of peritoneal B-1 cells harvested from normal mice. The general approach for preparing hybridomas from enriched fraction of peritoneal cells includes harvesting peritoneal cells from mice treated 7 days earlier with IL-10 and subsequently enriched for CD23 negative B cells by negative selection with magnetic beads. Enriched B cells are analyzed by FACS following staining with IgM, Mac-1 and CD23 specific Mab. […]
Twenty-two IgM-secreting hybridoma clones were analyzed by pooling an equal amount of IgM product from each of the clones. […]

Assay [7] relates to RAG-1^−/− mice. The settings on record: IgM-reconstituted sham controls (no ischemia); Zhang et al. (2004); cited from earlier work.
In assay [8] the test system is non-muscle myosin heavy chain-II (NMHC-II) isoforms A, B and C. As to the kind of experiment: ELISA: IgM binding to captured NMHC-II from intestinal lysates. The settings on record: NMHC captured from jejuneum lysates of RAG-1^−/− mice. Also on record: species or system mouse.
Description: FIG. 8B is a series of graphs showing results of in vitro binding assays of IgM^CM-22 to the isoforms of non-muscle myosin heavy chain-II (NMHC-II). ELISA plates were coated with monoclonal antibodies for 3 different isoforms of NMHC-II (upper left: isoform A, upper right: isoform B, lower left: isoform C and lower right: anti-pan myosin antibody). Bound myosin heavy chain from intestinal lysates was detected by IgM^CM-22 or IgM^CM-31. The results represent mean±standard error of OD 405 nm units and are representative of triplicate samples.
as §4, with “101:3886-91).” for “101:3886-91). Lysates were prepared as described for immune precipitation (see below). Alkaline-phosphatase labeled goat anti-mouse IgM (Sigma, Mo.) was then used to detect bound IgM.”

The next assay concerns P8 peptide. As to the kind of experiment: ELISA: IgM binding to P8 peptide-coated plates. The conditions noted are these: plate coated with 50 μg/ml P8. As to the method:
FIG. 6C is a bar graph showing specific binding of the P8 peptide to IgM^CM-22. The ELISA plates were coated with 50 μg/ml solution of P8 peptide, followed by addition of IgM^CM-22 or IgM^CM-75 at 1 or 10 μg/ml. IgM binding was detected with a biotinylated rat anti-mouse IgM followed by streptavidin-phosphatase and color reaction. The results are representative of at least three independent experiments.
as §4

The mark [9] stands for this setting: peptide mixed with IgM^CM-22 prior to injection in RAG-1^−/− mice.

Where “and” joins values, the source holds several entries; their conditions need not be identical. Equal values may be shown once.

Take LMKNMDPLNDNV [N2]: in the assay on WT mice, the “IgM and complement deposition in reperfused tissues (immunohistology)” value was “blocked”; the mean pathology score came out at 8±5. Also, the “SPR binding to IgM^CM-31-coupled surface” value in the assay with IgM^CM-31 is “no binding was observed”. Besides, the dissociation constant Kd (in general, the free concentration of one partner at which half of the binding sites on the other are occupied at equilibrium, for simple one-to-one binding) at IgM^CM-22 [1] is 123 ± 61 µM. Also, in the assay on RAG-1^−/− mice [2] (setting [9]), the “IgM and complement deposition in reperfused jejuneum (immunohistology)” value was “no deposition of IgM and complement”; the mean pathology score was found to be 13±8.
For NGNNVNGNRNNN [P8], in the assay with WT mice, the “IgM and complement deposition in reperfused tissues (immunohistology)” value is listed as “no apparent deposits of IgM or complement”; the mean pathology score was 5.+−.3. Also, the “optimal concentration sufficient to block 50-100 μg of IgM^CM-22 (0.1-0.2 μM)” value in the assay on IgM^CM-22 [3] is 10 µM. Moreover, the IC50 at IgM^CM-22 [4] was around 10 µM. In addition, the “relative binding of phage clone to IgM^CM-22” value in the assay on IgM^CM-22 [5] is reported as “bound with the highest efficiency”. In the assay with RAG-1^−/− mice [2] (setting [9]), the “IgM and complement deposition in reperfused jejuneum (immunohistology)” value is reported as “no evidence of IgM or complement binding”; the mean pathology score is given as 6±3.

B1: IgM^CM-22: natural IgM produced from hybridoma PTA-3507; heavy chain SEQ ID NO: 2, light chain SEQ ID NO: 8 (antibody, listed as Mus musculus)
heavy: QVQLQQSGAELVKPGASVKISCKASGYAFSSYWMNWVKQRPGKGLEWIGQIYPGDGDTNYNGKFKGKATLTADKSSSTAYMQLSSLTSEDSAVYFCAREDYYGSDWYFDVWGTGTTVTVSSGKLAFFFLHIPF
light: IVMTQSAASLAVSLGQRATISYRASKSVSTSGYSYMHWNQQKPGQPPRLLIYLVSNLESGVPARFSGSGSGTDFTLNIHPVEEEDAATYYCQHIRELTRSEGGPSWK
For the molecule B1, the “restoration of I/R injury” value in [6] is “restored injury”. In addition, the “IgM and complement deposition (immunohistology)” value in the assay with RAG-1^−/− mice [7] is on record as “No binding of IgM or complement”. Besides, in assay [8], the “binding of IgM to all three isoforms of NMHC-II (ELISA)” value was “Above background binding”. For the same molecule, the “IgM binding to P8 peptide-coated plate” value was “neither IgM bound above background” with P8 peptide (IgM at 1 μg/ml) and “significantly more” in the assay on P8 peptide (IgM at 10 μg/ml). The “IgM and complement C4 and C3 deposition in reperfused jejuneum (immunohistology)” value in the assay on RAG-1^−/− mice [2] (RAG-1^−/− mice reconstituted with the IgM alone, following RI) was “co-localization of IgM and complement C4 and C3 within the microvilli”. Besides, the mean pathology score in the assay with RAG-1^−/− mice [2] (RAG-1^−/− mice reconstituted with the antibody alone) is 31±13 and 31±10.
